According to patent US20230386662A1, “RAPID AND DIRECT IDENTIFICATION AND DETERMINATION OF URINE BACTERIAL SUSCEPTIBILITY TO ANTIBIOTICS” (B. G. NEGEV TECHNOLOGIES AND APPLICATIONS LTD., AT …, priority 2020, published 2023):

Key:
Assay type in all cases: cell-based
[1] = test system: E. coli isolates; experiment: Susceptibility of E. coli urine isolates to antibiotics by the classical method VITEK2; design: key to Bacterial susceptibility category label: sensitive (S); resistant (R); details: for R (number of isolates resistant to the antibiotic) / S (number of isolates sensitive to the antibiotic): E. coli isolates from urine of UTI patients, 567 isolates studied
Excerpt: (§1) The present inventors studied 1005 different bacterial isolates derived directly from urine samples of UTIs patients, as follows:
(§2) These isolates were identified at a species level as well as their known susceptibility to most common used antibiotics, using the classical methods MALDI-TOF and VITEK2, respectively.
The samples where then processed for spectrometric measurements, by purifying the infecting bacteria directly from the urine as described herein above. A subset consisting of ten E. coli isolates was randomly selected, as detailed in table 1.

[2] = test system: Klebsiella pneumonia isolates; experiment: Susceptibility of Klebsiella pneumonia urine isolates to antibiotics by the classical method VITEK2; details: Klebsiella pneumonia isolates from urine of UTI patients, 220 isolates studied
Excerpt: as §1, §2
FIGS. 7A-7B present the average second derivative IR spectra of Klebsiella pneumonia, in the 900-1800 cm^−1 region grouped as sensitive of resistant to: Amoxicillin (panel a), Ceftazidime (panel c), Ceftriaxone (panel e) and Cefuroxime (panel g). The ROC curves of the classification of these antibiotics are respectively presented in panels (b), (d), (f) and (h). […] The performances of the RF classifier for the classification between Klebsiella pneumonia isolates sensitive and resistant to the tested antibiotics are summarized in Table 4 similar to E. coli (Table 3).

[3] = test system: Pseudomonas aeruginosa isolates; experiment: Susceptibility of Pseudomonas aeruginosa urine isolates to antibiotics by the classical method VITEK2; details: Pseudomonas aeruginosa isolates from urine of UTI patients, 121 isolates studied
Excerpt: as §1
These isolates were identified at a species level as well as their known susceptibility to most common used antibiotics, using the classical methods MALDI-TOF and VITEK2, respectively. […]

Compound | R (number of isolates resistant to the antibiotic) [1] | S (number of isolates sensitive to the antibiotic) [1] | R (number of isolates resistant to the antibiotic) [2] | S (number of isolates sensitive to the antibiotic) [2] | Bacterial susceptibility category label ([1]; E. coli isolate 306358) | Bacterial susceptibility category label ([1]; E. coli isolate 306365) | Bacterial susceptibility category label ([1]; E. coli isolate 306366) | Bacterial susceptibility category label ([1]; E. coli isolate 306382) | Bacterial susceptibility category label ([1]; E. coli isolate 307201) | Bacterial susceptibility category label ([1]; E. coli isolate 307212) | Bacterial susceptibility category label ([1]; E. coli isolate 307234) | Bacterial susceptibility category label ([1]; E. coli isolate 307368) | Bacterial susceptibility category label ([1]; E. coli isolate 307395) | Bacterial susceptibility category label ([1]; E. coli isolate 307402) | R (number of isolates resistant to the antibiotic) [3] | S (number of isolates sensitive to the antibiotic) [3]
CC1(C)S[C@@H]2[C@H](NC(=O)[C@H](N)c3ccc(O)cc3)C(=O)N2[C@H]1C(=O)O [Amoxicillin] | 170 | 397 | 61 | 159 |  |  |  |  |  |  |  |  |  |  |  | 
CC1(C)S[C@@H]2[C@H](NC(=O)[C@H](N)c3ccccc3)C(=O)N2[C@H]1C(=O)O [Ampicillin] | 384 | 181 |  |  | S | R | R | S | R | S | R | S | R | R |  | 
CC(C)(O/N=C(\C(=O)N[C@@H]1C(=O)N2C(C(=O)[O-])=C(C[n+]3ccccc3)CS[C@H]12)c1csc(N)n1)C(=O)O [Ceftazidime] | 159 | 408 | 91 | 129 |  |  |  |  |  |  |  |  |  |  | 19 | 78
CO/N=C(\C(=O)N[C@@H]1C(=O)N2C(C(=O)O)=C(CSc3nc(=O)c(=O)[nH]n3C)CS[C@H]12)c1csc(N)n1 [Ceftriaxone] | 160 | 407 | 87 | 133 | S | S | R | S | S | S | S | S | S | S |  | 
CO/N=C(\C(=O)N[C@@H]1C(=O)N2C(C(=O)OC(C)OC(C)=O)=C(COC(N)=O)CS[C@H]12)c1ccco1 (stereo partly drawn) [Cefuroxime-Axetil] | 190 | 351 | 95 | 112 |  |  |  |  |  |  |  |  |  |  |  | 
CO/N=C(\C(=O)N[C@@H]1C(=O)N2C(C(=O)O)=C(COC(N)=O)CS[C@H]12)c1ccco1 [Cefuroxime] | 196 | 371 | 99 | 121 | S | S | R | S | S | S | S | S | S | S |  | 
CC1=C(C(=O)O)N2C(=O)[C@@H](NC(=O)[C@H](N)c3ccccc3)[C@H]2SC1 [Cephalexin] | 167 | 372 | 90 | 121 |  |  |  |  |  |  |  |  |  |  |  | 
C[C@@H](O)[C@H]1C(=O)N2C(C(=O)O)=C(SCCN=CN)C[C@H]12 [Imipenem] |  |  |  |  |  |  |  |  |  |  |  |  |  |  | 18 | 72
C[C@H]1COc2c(N3CCN(C)CC3)c(F)cc3c(=O)c(C(=O)O)cn1c23 [Levofloxacin] |  |  |  |  |  |  |  |  |  |  |  |  |  |  | 33 | 63
C[C@@H](O)[C@H]1C(=O)N2C(C(=O)O)=C(S[C@@H]3CN[C@H](C(=O)N(C)C)C3)[C@H](C)[C@H]12 [Meropenem] |  |  |  |  |  |  |  |  |  |  |  |  |  |  | 20 | 77
O=C1CN(/N=C/c2ccc([N+](=O)[O-])o2)C(=O)N1 [Nitrofurantoin] | 47 | 502 | 150 | 62 |  |  |  |  |  |  |  |  |  |  |  | 
CCN1CCN(C(=O)N[C@@H](C(=O)N[C@@H]2C(=O)N3[C@@H]2SC(C)(C)[C@@H]3C(=O)O)c2ccccc2)C(=O)C1=O [Piperacillin] |  |  |  |  |  |  |  |  |  |  |  |  |  |  | 23 | 59
NC[C@H]1O[C@H](O[C@H]2[C@H](O)[C@@H](O[C@H]3O[C@H](CO)[C@@H](O)[C@H](N)[C@H]3O)[C@H](N)C[C@@H]2N)[C@H](N)C[C@@H]1O [Tobramycin] |  |  |  |  |  |  |  |  |  |  |  |  |  |  | 15 | 79
Amoxicillin ClavulA |  |  |  |  | S |  |  | S | S | S | S | S | S |  |  | 
Gentamicin | 68 | 498 | 41 | 179 |  |  |  |  |  |  |  |  |  |  | 17 | 80
Piperacill-Tazobactam | 58 | 506 | 41 | 179 |  |  |  |  |  |  |  |  |  |  | 10 | 76
Sulfamethoxa-Trimeth | 194 | 371 | 92 | 126 | S | R | S | S | R | R | R | S | R | S |  | 
